Measurements as given in ChEMBL document CHEMBL3045539, “Synthesis, DNA affinity, and antimicrobial activity of 4-substituted phenyl-2,2-bichalcophenes and aza-analogues” (Med Chem Res, 2012).
Converted amounts (≈) assume the structure as drawn. The source made the active and inactive calls. The rule behind the calls is not given here.

Tests used:
[1] = Antioxidant activity assessed as DPPH scavenging activity at 50 ug after 30 min by spectrophotometry; assay type: functional
Escherichia coli [2] = experiment: Antimicrobial activity against Escherichia coli after 24 hr by CLSI liquid dilution method; assay type: functional
Saccharomyces cerevisiae [3] = experiment: Antimicrobial activity against Saccharomyces cerevisiae at 100 ug after 24 hr by cup diffusion technique; assay type: functional; conditions: read-out: DIZ
Escherichia coli [4] = experiment: Induction of Escherichia coli AB1157 DNA degradation after 1 hr by agarose gel electrophoresis
Staphylococcus aureus [5] = experiment: Antimicrobial activity against Staphylococcus aureus after 24 hr by CLSI liquid dilution method; assay type: functional
Bacillus subtilis [6] = experiment: Antimicrobial activity against Bacillus subtilis at 100 ug after 24 hr by cup diffusion technique; assay type: functional; conditions: read-out: DIZ
Staphylococcus aureus [7] = experiment: Antimicrobial activity against Staphylococcus aureus at 100 ug after 24 hr by cup diffusion technique; assay type: functional; conditions: read-out: DIZ
Saccharomyces cerevisiae [8] = experiment: Antimicrobial activity against Saccharomyces cerevisiae after 24 hr by CLSI liquid dilution method; assay type: functional
Pseudomonas aeruginosa [9] = experiment: Antimicrobial activity against Pseudomonas aeruginosa after 24 hr by CLSI liquid dilution method; assay type: functional
Bacillus subtilis [10] = experiment: Antimicrobial activity against Bacillus subtilis after 24 hr by CLSI liquid dilution method; assay type: functional
[11] = Antioxidant activity assessed as SOD-like activity measuring inhibition of superoxide radical production at 50 ug after 30 min by NBT reduction assay; assay type: functional
Albumin = Albumin (Bos taurus, UniProt P02769); experiment: Induction of Bos taurus (bovine) serum albumin degradation after 1 hr by SDS-PAGE analysis; conditions: cattle
Escherichia coli [12] = experiment: Antimicrobial activity against Escherichia coli at 100 ug after 24 hr by cup diffusion technique; assay type: functional; conditions: read-out: DIZ
Pseudomonas aeruginosa [13] = experiment: Antimicrobial activity against Pseudomonas aeruginosa after 24 hr by cup diffusion technique; assay type: functional

Chain of Albumin (P02769 whole entry, the tested form may be a part): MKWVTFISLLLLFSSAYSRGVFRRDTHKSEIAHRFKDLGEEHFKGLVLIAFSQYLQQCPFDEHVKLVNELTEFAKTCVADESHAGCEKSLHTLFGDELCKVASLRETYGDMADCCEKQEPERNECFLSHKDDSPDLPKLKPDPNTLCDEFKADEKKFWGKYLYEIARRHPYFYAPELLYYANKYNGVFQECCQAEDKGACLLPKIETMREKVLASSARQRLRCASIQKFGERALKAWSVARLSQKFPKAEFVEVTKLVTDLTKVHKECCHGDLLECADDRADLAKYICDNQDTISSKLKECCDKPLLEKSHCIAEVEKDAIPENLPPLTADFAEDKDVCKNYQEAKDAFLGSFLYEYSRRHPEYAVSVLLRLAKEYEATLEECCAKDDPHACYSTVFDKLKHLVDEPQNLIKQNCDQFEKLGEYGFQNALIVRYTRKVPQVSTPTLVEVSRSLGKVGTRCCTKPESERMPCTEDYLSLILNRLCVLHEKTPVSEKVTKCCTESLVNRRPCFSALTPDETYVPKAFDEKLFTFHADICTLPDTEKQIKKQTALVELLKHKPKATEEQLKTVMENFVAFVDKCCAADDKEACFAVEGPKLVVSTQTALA

Row | Structure (SMILES) | Activity [1] | MIC (Escherichia coli [2]) | zone of inhibition at 100 µg/disc (Saccharomyces cerevisiae [3]) | Activity (Escherichia coli [4]) | MIC (Staphylococcus aureus [5]) | zone of inhibition at 100 µg/disc (Bacillus subtilis [6]) | zone of inhibition at 100 µg/disc (Staphylococcus aureus [7]) | MIC (Saccharomyces cerevisiae [8]) | MIC (Pseudomonas aeruginosa [9]) | MIC (Bacillus subtilis [10]) | inhibition [11] | Activity (Albumin) | zone of inhibition at 100 µg/disc (Escherichia coli [12]) | diameter of the inhibition zone (DIZ) (Pseudomonas aeruginosa [13])
1 | N#Cc1ccc(-c2ccc(-c3cccs3)s2)nc1 [6-(2,2'-BITHIOPHEN-5-YL)NICOTINONITRILE] | 55.4% | 15 µg/mL (≈ 55.9 µM) | 19 mm | Active | 15 µg/mL (≈ 55.9 µM) | 12 mm | 13 mm | 2.5 µg/mL (≈ 9.32 µM) | 7.5 µg/mL (≈ 27.9 µM) | 10 µg/mL (≈ 37.3 µM) | 52.9% | Not Active | 13 mm | 15 mm
2 | N#Cc1ccc(-c2ccc(-c3ccco3)o2)nc1 [6-(2,2'-BIFURAN-5-YL)NICOTINONITRILE] | – | 7.5 µg/mL (≈ 31.7 µM) | 20 mm | Active | 2.5 µg/mL (≈ 10.6 µM) | 16 mm | 17 mm | 2 µg/mL (≈ 8.47 µM) | 5 µg/mL (≈ 21.2 µM) | 5 µg/mL (≈ 21.2 µM) | 34.9% | Not Active | 14 mm | 16 mm
3 | N=C(N)c1ccc(-c2ccc(-c3cccs3)o2)cc1 [4-[5-(THIOPHEN-2-YL)FURAN-2-YL]BENZAMIDINE] | 57.7% | 15 µg/mL (≈ 55.9 µM) | 12 mm | – | 10 µg/mL (≈ 37.3 µM) | 11 mm | 10 mm | 7.5 µg/mL (≈ 27.9 µM) | 15 µg/mL (≈ 55.9 µM) | 10 µg/mL (≈ 37.3 µM) | 53.7% | Active | 9 mm | 9 mm
4 | N=C(N)c1ccc(-c2ccc(-c3ccco3)o2)cc1 [4-(2,2'-BIFURAN-5-YL)BENZAMIDINE] | – | 20 µg/mL (≈ 79.3 µM) | 11 mm | Active | 20 µg/mL (≈ 79.3 µM) | 9 mm | 8 mm | 15 µg/mL (≈ 59.5 µM) | 15 µg/mL (≈ 59.5 µM) | 15 µg/mL (≈ 59.5 µM) | 39.7% | Active | 6 mm | 10 mm
5 | N#Cc1ccc(-c2ccc(-c3ccco3)o2)cc1 [4-(2,2'-BIFURAN-5-YL)BENZONITRILE] | – | 2.5 µg/mL (≈ 10.6 µM) | 16 mm | Active | 2 µg/mL (≈ 8.5 µM) | 19 mm | 18 mm | 2.5 µg/mL (≈ 10.6 µM) | 5 µg/mL (≈ 21.3 µM) | 2.5 µg/mL (≈ 10.6 µM) | 42.4% | Active | 18 mm | 16 mm
6 | N#Cc1ccc(-c2ccc(-c3cccs3)o2)cc1 [4-[5-(THIOPHEN-2-YL)FURAN-2-YL]BENZONITRILE] | 53.1% | 15 µg/mL (≈ 59.7 µM) | 15 mm | Active | 15 µg/mL (≈ 59.7 µM) | 14 mm | 12 mm | 10 µg/mL (≈ 39.8 µM) | 15 µg/mL (≈ 59.7 µM) | 10 µg/mL (≈ 39.8 µM) | 46.9% | Not Active | 12 mm | 16 mm
7 | N=C(N)c1ccc(-c2ccc(-c3cccs3)o2)nc1 [6-[5-(THIOPHEN-2-YL)FURAN-2-YL]NICOTINAMIDINE] | – | 15 µg/mL (≈ 55.7 µM) | 10 mm | Active | 10 µg/mL (≈ 37.1 µM) | 5 mm | 11 mm | 15 µg/mL (≈ 55.7 µM) | 20 µg/mL (≈ 74.3 µM) | 15 µg/mL (≈ 55.7 µM) | 44.2% | Active | 8 mm | 7 mm
8 | N=C(N)c1ccc(-c2ccc(-c3ccco3)o2)nc1 [6-(2,2'-BIFURAN-5-YL)NICOTINAMIDINE] | – | 15 µg/mL (≈ 59.2 µM) | 12 mm | Active | 15 µg/mL (≈ 59.2 µM) | 7 mm | 6 mm | 10 µg/mL (≈ 39.5 µM) | 15 µg/mL (≈ 59.2 µM) | 15 µg/mL (≈ 59.2 µM) | 44.6% | Not Active | 9 mm | 7 mm
9 | N#Cc1ccc(-c2ccc(-c3cccs3)o2)nc1 [6-[5-(THIOPHEN-2-YL)FURAN-2-YL]NICOTINONITRILE] | – | 10 µg/mL (≈ 39.6 µM) | 16 mm | Active | 15 µg/mL (≈ 59.5 µM) | 13 mm | 12 mm | 10 µg/mL (≈ 39.6 µM) | 10 µg/mL (≈ 39.6 µM) | 15 µg/mL (≈ 59.5 µM) | 40.3% | Active | 14 mm | 16 mm
10 | N=C(N)c1ccc(-c2ccc(-c3cccs3)s2)nc1 [6-(2,2'-BITHIOPHENE-5-YL)NICOTINAMIDINE] | 58.2% | 10 µg/mL (≈ 35 µM) | 14 mm | Active | 15 µg/mL (≈ 52.6 µM) | 7 mm | 10 mm | 5 µg/mL (≈ 17.5 µM) | 15 µg/mL (≈ 52.6 µM) | 15 µg/mL (≈ 52.6 µM) | 51.4% | Active | 10 mm | 9 mm
11 | CC1(C)S[C@@H]2[C@H](NC(=O)[C@H](N)c3ccccc3)C(=O)N2[C@H]1C(=O)O [AMPICILLIN] | – | 10 µg/mL (≈ 28.6 µM) | 17 mm | – | 10 µg/mL (≈ 28.6 µM) | 18 mm | 12 mm | 7.5 µg/mL (≈ 21.5 µM) | 15 µg/mL (≈ 42.9 µM) | 15 µg/mL (≈ 42.9 µM) | – | – | 16 mm | 12 mm
12 | N=C(N)c1ccc(-c2ccc(-c3cccs3)s2)cc1 [4-(2,2'-BITHIOPHENE-5-YL)BENZAMIDINE] | 51.9% | 10 µg/mL (≈ 35.2 µM) | 12 mm | Active | 15 µg/mL (≈ 52.7 µM) | 9 mm | 8 mm | 10 µg/mL (≈ 35.2 µM) | 20 µg/mL (≈ 70.3 µM) | 15 µg/mL (≈ 52.7 µM) | 48.1% | Not Active | 11 mm | 8 mm
13 | N#Cc1ccc(-c2ccc(-c3cccs3)s2)cc1 [4-(2,2'-BITHIOPHEN-5-YL)BENZONITRILE] | 61.8% | 15 µg/mL (≈ 56.1 µM) | 13 mm | Active | 20 µg/mL (≈ 74.8 µM) | 12 mm | 9 mm | 10 µg/mL (≈ 37.4 µM) | 10 µg/mL (≈ 37.4 µM) | 20 µg/mL (≈ 74.8 µM) | 57.8% | Active | 10 mm | 12 mm
